Key:
[1] = system: 293T cells; test: In vitro SEAP expression via QuantiBlue assay, DNA nanoparticles; type: cell-based; conditions: 24 hours post-treatment
Method: To test the ability of these nanoparticles to express SEAP in vitro, 293T cells were treated with nanoparticles. Each well of a 96 well dish of 293 Ts was treated with 10 μL (approximately 0.25 μg) of each formulation product diluted into a final volume of 200 μL with a 1:1 Optimem:PBS mix. The nontreated wells had 200 μL of 50/50 PBS/OptiMEM. Twenty four hours post-treatment or transfection, conditioned media from each culture was collected. Media was analyzed using the QuantiBlue assay (InvivoGen). 180 μL QuantiBlue reagent was combined with 50 μL of media from wells. Readings were taken after 40 minutes by measuring absorbance at 650 nm as directed by the manufacturer's protocol. For the no treatment Negative Control, 50 μL of media from a well not treated with nanoparticles was added to 180 μL QuantiBlue Reagent. These samples were treated the same way as all other samples in all steps of the assay.
FIG. 11 illustrates in vitro SEAP expression of nanoparticle formulations with modified dendrimers used to treat 293T cells.

[2] = system: Influenza A virus (PR/8/34); test: Hemagglutinin Inhibition Assay (HAI) on vaccinated animal sera
Method: HAI tests were performed on vaccinated animal sera according to the standard recommended WHO protocol [World Health Organization. […] Sera were treated with receptor destroying enzyme (Denka Seiken Co. Ltd, Tokyo, Japan) at 37° C. overnight then heat inactivated for 30 minutes at 56° C. After cooling down to RT, those serum samples were mixed with 2 volume of 25% suspension of turkey red blood cells (RBC, Rockland Immunochemicals) and incubated at room temperature for 2 hours followed by centrifugation to remove RBC. The treated sera, now considered to be at a 1:10 dilution, were serially diluted and incubated with 4 HA units of inactivated Influenza A virus (PR/8/34, Virusys #IAV210) for 30 minutes at room temperature. An equal volume of 0.5% turkey RBC was added to each well and incubated for 30 minutes at room temperature.

Compound | in vitro SEAP expression [1] | average HI titer ([2]; week 4, after prime vaccination, 5 μg nanoparticle vaccine, HA mRNA) | average HI titer ([2]; week 5, one week after boost immunization, 5 μg)
CCCCCCCCCCCCCCCCC(=O)NCCCN(C)CCCNC(=O)OCC(C)(COC(=O)NCCCN(C)CCCNC(=O)CCCCCCCCCCCCCCCC)C(=O)OCC(CC)(COC(=O)C(C)(COC(=O)NCCCN(C)CCCNC(=O)CCCCCCCCCCCCCCCC)COC(=O)NCCCN(C)CCCNC(=O)CCCCCCCCCCCCCCCC)COC(=O)C(C)(COC(=O)NCCCN(C)CCCNC(=O)CCCCCCCCCCCCCCCC)COC(=O)NCCCN(C)CCCNC(=O)CCCCCCCCCCCCCCCC [PE-Heptadecanoic] | resulted in SEAP expression | – | –
CCCCCCCC/C=C\CCCCCCCC(=O)NCCCN(C)CCCNC(=O)OCC(C)(COC(=O)NCCCN(C)CCCNC(=O)CCCCCCC/C=C\CCCCCCCC)C(=O)OCC(CC)(COC(=O)C(C)(COC(=O)NCCCN(C)CCCNC(=O)CCCCCCC/C=C\CCCCCCCC)COC(=O)NCCCN(C)CCCNC(=O)CCCCCCC/C=C\CCCCCCCC)COC(=O)C(C)(COC(=O)NCCCN(C)CCCNC(=O)CCCCCCC/C=C\CCCCCCCC)COC(=O)NCCCN(C)CCCNC(=O)CCCCCCC/C=C\CCCCCCCC [PE-Oleic] | resulted in SEAP expression | 40 | 192
